Data reported in US10123996B2, “Macrocyclic lactone compounds and methods for their use” (Elixir Medical Corporation, priority 2006, dated 2018).

What was measured:
Format in all cases: cell-based
[1] = tested on: human smooth muscle cells; assay: in vitro human smooth muscle cell culture testing, incorporated thymidine (proliferation); settings: for % Proliferation After One Hr Exposure: 1 hr exposure; for % Proliferation After Three Hr Exposure: 3 hr exposure; for % Proliferation After Eight Hr Exposure: 8 hr exposure; for IC50: Homo sapiens
Procedure: The amounts of incorporated thymidine for samples of Compound AR of varying concentrations (0.005, 0.01, 0.05, 0.1, 0.5, and 1 μM) and of rapamycin of varying concentrations (0.0005, 0.001, 0.01, and 0.1 μM) were measured after exposure for different times of 1, 3 and 8 hours. The IC50 for Compound AR and rapamycin were approximately 0.05 and 0.01 μM, respectively, after smooth muscle cells were exposed to Compound AR and rapamycin for the shorter periods of 1 and 3 hours (as shown in Table 1 and FIG. 8). The IC50 of Compound AR and rapamycin was approximately 0.005 and 0.001 μM, respectively, after smooth muscle cells were exposure to Compound AR and rapamycin for 8 hours. The IC50 of Compound AR was approximately five times higher than that of rapamycin.
The amounts of incorporated thymidine for samples of 17, 18-29, 30-bis-epoxide macrocyclic lactone of varying concentrations (0.005, 0.01, 0.05, 0.1, 0.5, and 1 μM) and of Compound AR of varying concentrations (0.0005, 0.001, 0.01, and 0.1 μM) were measured after exposure for 8 hours. The IC50 of 17, 18-29, 30-bis-epoxide macrocyclic lactone and Compound AR was approximately 0.1 and 0.005 μM, respectively, after smooth muscle cells were exposed to 17, 18-29, 30-bis-epoxide macrocyclic lactone and Compound AR for 8 hours (FIG. 13). The IC50 of 17, 18-29, 30-bis-epoxide macrocyclic lactone was approximately 20 times higher than that of Compound AR.

[2] = tested on: IL-6 released by activated macrophages; assay: cytokine inhibition in LPS-activated macrophages, ELISA: IL-6; settings: 10 nM
Procedure: (§1) In cell culture studies, macrophages were activated to secrete cytokines such as 11-6, MMP-9, MCP-1 and IL-10 by treating the cells to E Coli lippopolysaccharide (LPS). Inhibition of these cytokines upon treatment of the activated macrophages with Compound AR and rapamycin with 10 nM concentration was tested using ELISA assay. The inhibition of pro-inflammatory and cell proliferation and migration inducing cytokines upon exposure to the macrocyclic lactone is presented in FIG. 12A. The inhibition of anti-inflammatory cytokine IL-10 upon exposure to macrocyclic lactone Compound AR and Sirolimus are presented in FIG. 12B.

[3] = tested on: MMP-9 released by activated macrophages; assay: cytokine inhibition in LPS-activated macrophages, ELISA: MMP-9; settings: 10 nM
Procedure: as §1

[4] = tested on: MCP-1 released by activated macrophages; assay: cytokine inhibition in LPS-activated macrophages, ELISA: MCP-1; settings: 10 nM
Procedure: as §1

[5] = tested on: IL-10 released by activated macrophages; assay: cytokine inhibition in LPS-activated macrophages, ELISA: IL-10; settings: 10 nM
Procedure: as §1

CO[C@@H]1C[C@H](C[C@@H](C)[C@@H]2CC(=O)[C@H](C)/C=C(\C)[C@@H](O)[C@@H](OC)C(=O)[C@H](C)C[C@H](C)/C=C/C=C/C=C(\C)C(O)C[C@@H]3CC[C@@H](C)C(O)(O3)C(=O)C(=O)N3CCCC[C@H]3C(=O)O2)CC[C@H]1O (stereo partly drawn) [Compound AR, 16-O-Demethyl Macrocyclic Lactone]
% Proliferation After One Hr Exposure ([1]; 0.005 micromolar): 84% | % Proliferation After Three Hr Exposure ([1]; 0.005 micromolar): 69% | % Proliferation After Eight Hr Exposure ([1]; 0.005 micromolar): 52% | % Proliferation After One Hr Exposure ([1]; 0.01 micromolar): 66% | % Proliferation After Three Hr Exposure ([1]; 0.01 micromolar): 56% | % Proliferation After Eight Hr Exposure ([1]; 0.01 micromolar): 38% | % Proliferation After One Hr Exposure ([1]; 0.05 micromolar): 54% | % Proliferation After Three Hr Exposure ([1]; 0.05 micromolar): 50% | % Proliferation After Eight Hr Exposure ([1]; 0.05 micromolar): 40% | % Proliferation After One Hr Exposure ([1]; 0.1 micromolar): 55% | % Proliferation After Three Hr Exposure ([1]; 0.1 micromolar): 52% | % Proliferation After Eight Hr Exposure ([1]; 0.1 micromolar): 36% | % Proliferation After One Hr Exposure ([1]; 0.5 micromolar): 57% | % Proliferation After Three Hr Exposure ([1]; 0.5 micromolar): 48% | % Proliferation After Eight Hr Exposure ([1]; 0.5 micromolar): 35% | IC50 ([1]; smooth muscle cells exposed for 8 hours): ~5 nM | IC50 ([1]; smooth muscle cells exposed for the shorter periods of 1 and 3 hours): ~50 nM | inhibition of release of IL-6 [2]: did not show and significant inhibition | production of MMP-9 [3]: significantly reduced the production | production of MCP-1 [4]: significantly reduced the production | production of anti-inflammatory cytokine IL-10 [5]: inhibit the production
